Data published in ChEMBL document CHEMBL1201862, “PubChem BioAssay data set” (2004).
Values belong to the compound of their own block, whether it stands above or below them. The source made the active and inactive calls.

Assays:
[1] = target: T1, Estrogen receptor (Homo sapiens, UniProt P03372);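 further: potency for inhibiting coactivator peptide recruitment to the receptor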
T1 sequence (P03372 whole entry): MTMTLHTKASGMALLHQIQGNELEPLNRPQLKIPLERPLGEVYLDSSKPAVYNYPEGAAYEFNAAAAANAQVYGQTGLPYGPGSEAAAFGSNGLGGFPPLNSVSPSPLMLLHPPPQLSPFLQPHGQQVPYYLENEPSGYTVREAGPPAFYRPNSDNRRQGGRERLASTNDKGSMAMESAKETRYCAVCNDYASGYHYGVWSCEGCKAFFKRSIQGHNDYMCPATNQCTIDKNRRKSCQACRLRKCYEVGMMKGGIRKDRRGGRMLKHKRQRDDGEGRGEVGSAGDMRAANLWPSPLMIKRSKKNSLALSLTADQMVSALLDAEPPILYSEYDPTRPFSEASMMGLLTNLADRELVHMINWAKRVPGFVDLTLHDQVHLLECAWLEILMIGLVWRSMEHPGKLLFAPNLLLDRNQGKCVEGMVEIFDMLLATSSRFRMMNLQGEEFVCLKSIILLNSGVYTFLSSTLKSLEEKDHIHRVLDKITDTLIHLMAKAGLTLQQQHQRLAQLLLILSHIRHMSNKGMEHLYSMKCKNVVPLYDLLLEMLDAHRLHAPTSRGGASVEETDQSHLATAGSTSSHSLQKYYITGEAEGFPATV

[2] = target: Cytochrome P450 2D6 (Homo sapiens, UniProt P10635); test: qHTS Assay for Inhibitors and Substrates of Cytochrome P450 2D6. [Related pubchem assays: 410 ]; format: ADME; conditions: read-out: Potency
[3] = target: NAD-dependent protein deacylase sirtuin-5, mitochondrial (Homo sapiens, UniProt Q9NXA8); test: sirtuin-5 deacylation blockers, concentration series – biochemical, fluorescence imaging, cherry-pick, set 5, dose response (AID 720591);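 further: desuccinylation of succinyl peptide AMC substrate read as fluorescence after trypsin release; potency of inhibitors that lower fluorescence and may act on trypsin instead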
[4] = test system: HT-1080; test: HT1080 cell viability loss – fluorescence readout (AID 620); format: functional, cell-based; conditions: Homo sapiens
[5] = target: Luciferin 4-monooxygenase (Photinus pyralis, UniProt P08659); test: Counter Screen for Luciferase-based Assay Positives. [Related pubchem assays: 620, 618, 411 ]
[6] = target: T2, Corticotropin-releasing factor receptor 2/Corticotropin-releasing factor-binding protein (Homo sapiens, UniProt P24387+Q13324); test: activators of CRF receptor 2 with binding protein – uHTS hits, confirmation (AID 602473); format: functional; conditions: read-out: EC50_Mean
T2 sequence (Q13324 whole entry): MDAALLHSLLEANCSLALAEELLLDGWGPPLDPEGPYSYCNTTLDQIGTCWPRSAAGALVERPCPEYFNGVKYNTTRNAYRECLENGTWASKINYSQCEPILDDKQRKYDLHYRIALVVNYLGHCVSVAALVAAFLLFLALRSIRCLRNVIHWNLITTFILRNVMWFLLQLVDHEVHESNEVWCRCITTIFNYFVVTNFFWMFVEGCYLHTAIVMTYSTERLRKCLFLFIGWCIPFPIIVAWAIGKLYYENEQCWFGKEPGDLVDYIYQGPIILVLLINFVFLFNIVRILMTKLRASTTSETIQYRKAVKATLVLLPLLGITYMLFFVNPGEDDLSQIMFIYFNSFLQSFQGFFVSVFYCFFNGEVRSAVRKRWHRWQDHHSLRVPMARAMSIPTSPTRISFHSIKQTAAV
T2 sequence (P24387 whole entry): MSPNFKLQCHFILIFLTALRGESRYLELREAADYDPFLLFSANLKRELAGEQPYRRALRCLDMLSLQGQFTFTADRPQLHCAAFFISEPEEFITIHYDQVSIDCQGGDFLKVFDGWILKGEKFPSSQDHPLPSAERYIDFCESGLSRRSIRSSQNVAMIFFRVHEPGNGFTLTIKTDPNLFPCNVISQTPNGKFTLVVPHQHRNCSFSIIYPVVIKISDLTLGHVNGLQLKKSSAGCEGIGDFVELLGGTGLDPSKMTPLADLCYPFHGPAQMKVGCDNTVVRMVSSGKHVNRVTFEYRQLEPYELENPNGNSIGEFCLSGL

[7] = target: Glyceraldehyde-3-phosphate dehydrogenase (Homo sapiens, UniProt P04406)
[8] = Trypanosoma cruzi growth suppression in host cells – NIH3T3 host cells, beta-gal luminescence, confirmation (AID 2044); format: functional, cell-based;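 further: intracellular parasites grown in NIH/3T3 mouse fibroblasts as host cells; luminescent beta-galactosidase reporter signal from transgenic T. cruzi replicating inside host cells; inhibitors lower the luminescence signal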
[9] = cells
[10] = NIH3T3 cell viability loss – ATP luminescence, mouse fibroblasts, counter-screen, dose response (AID 2010); format: functional, cell-based;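 further: cells exposed to compound for about 90 hours before reading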
[11] = target: Procathepsin L (Homo sapiens, UniProt P07711); test: CTSL1 protease inhibition – biochemical, QFRET, 1536-well, counter-screen for M1/M17 aminopeptidase inhibitor project, dose response (AID 2214)
[12] = target: T3, Leucine aminopeptidase (Plasmodium falciparum 3D7, UniProt Q8IL11); test: P. falciparum M17LAP inhibitors, primary screen, biochemical, fluorogenic H-Leu-NHMec substrate, 1536-well (AID 1619); format: functional
T3 sequence (Q8IL11 whole entry): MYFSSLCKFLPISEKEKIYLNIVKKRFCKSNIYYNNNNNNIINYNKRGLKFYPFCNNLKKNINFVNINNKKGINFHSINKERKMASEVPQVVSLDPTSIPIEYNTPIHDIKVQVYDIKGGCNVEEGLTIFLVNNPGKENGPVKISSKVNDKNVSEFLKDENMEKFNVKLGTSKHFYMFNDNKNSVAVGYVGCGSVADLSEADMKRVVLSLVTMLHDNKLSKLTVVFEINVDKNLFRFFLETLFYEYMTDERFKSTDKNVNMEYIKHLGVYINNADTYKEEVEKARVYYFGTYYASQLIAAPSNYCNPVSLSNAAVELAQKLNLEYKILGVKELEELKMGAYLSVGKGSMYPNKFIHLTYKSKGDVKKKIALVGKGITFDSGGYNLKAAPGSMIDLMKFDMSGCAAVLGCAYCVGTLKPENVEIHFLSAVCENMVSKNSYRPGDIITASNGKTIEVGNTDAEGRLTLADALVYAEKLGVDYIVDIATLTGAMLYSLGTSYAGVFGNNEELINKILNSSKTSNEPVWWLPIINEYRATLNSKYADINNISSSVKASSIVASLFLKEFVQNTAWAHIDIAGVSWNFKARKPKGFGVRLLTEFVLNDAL

[13] = target: T4, Aspartyl aminopeptidase (Plasmodium falciparum 3D7, UniProt Q8I2J3); test: Counterscreen for inhibitors of M1 and M17 aminopeptidases: QFRET-based biochemical high throughput dose response assay for inhibitors of the Plasmodium falciparum M18 Aspartyl Aminopeptidase (PFM18AAP). [Related PubChem assays: 1619 (Screening assay (M17LAP inhibitors).), 1445 (Screening assay (M1AAP inhibitors).)]
T4 sequence (Q8I2J3 whole entry): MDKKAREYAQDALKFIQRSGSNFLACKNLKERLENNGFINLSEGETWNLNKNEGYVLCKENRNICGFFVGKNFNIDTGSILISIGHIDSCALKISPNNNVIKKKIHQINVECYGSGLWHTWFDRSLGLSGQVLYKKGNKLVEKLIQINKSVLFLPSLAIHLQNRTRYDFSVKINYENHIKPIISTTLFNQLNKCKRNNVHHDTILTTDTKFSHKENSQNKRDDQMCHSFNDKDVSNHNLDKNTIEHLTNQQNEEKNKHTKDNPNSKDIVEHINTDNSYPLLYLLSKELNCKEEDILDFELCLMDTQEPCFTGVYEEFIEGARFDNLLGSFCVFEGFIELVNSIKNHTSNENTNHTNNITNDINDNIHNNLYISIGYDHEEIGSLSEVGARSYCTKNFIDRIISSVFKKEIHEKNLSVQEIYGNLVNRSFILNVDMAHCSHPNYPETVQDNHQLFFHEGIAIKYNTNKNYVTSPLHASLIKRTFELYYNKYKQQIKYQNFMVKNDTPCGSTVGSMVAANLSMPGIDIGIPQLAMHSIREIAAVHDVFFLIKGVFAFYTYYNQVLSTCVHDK

NAD-dependent protein deacylase sirtuin-5, mitochondrial, sequence (Q9NXA8 whole entry): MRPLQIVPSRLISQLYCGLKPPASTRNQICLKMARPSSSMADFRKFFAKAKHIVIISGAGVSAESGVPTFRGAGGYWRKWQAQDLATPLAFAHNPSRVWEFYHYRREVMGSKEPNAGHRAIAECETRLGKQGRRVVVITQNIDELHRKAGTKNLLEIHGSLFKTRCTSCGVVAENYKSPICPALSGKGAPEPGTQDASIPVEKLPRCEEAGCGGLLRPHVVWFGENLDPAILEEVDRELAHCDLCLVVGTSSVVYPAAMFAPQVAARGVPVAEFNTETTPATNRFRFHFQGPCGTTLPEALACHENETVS
Cytochrome P450 2D6, sequence (P10635 whole entry): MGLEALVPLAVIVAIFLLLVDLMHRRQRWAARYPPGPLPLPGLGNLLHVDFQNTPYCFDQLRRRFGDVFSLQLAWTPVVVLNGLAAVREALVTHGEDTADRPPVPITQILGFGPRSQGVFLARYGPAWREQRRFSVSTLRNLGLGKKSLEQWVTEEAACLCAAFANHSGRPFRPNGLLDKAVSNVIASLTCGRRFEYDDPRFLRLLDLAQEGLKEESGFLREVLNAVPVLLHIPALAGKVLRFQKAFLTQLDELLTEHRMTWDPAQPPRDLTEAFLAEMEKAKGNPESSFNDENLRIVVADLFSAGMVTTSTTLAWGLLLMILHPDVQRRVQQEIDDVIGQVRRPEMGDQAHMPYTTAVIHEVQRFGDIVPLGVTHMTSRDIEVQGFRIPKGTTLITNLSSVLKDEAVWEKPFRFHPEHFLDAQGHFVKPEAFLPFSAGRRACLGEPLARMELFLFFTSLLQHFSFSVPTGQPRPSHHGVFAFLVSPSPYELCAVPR
Procathepsin L, sequence (P07711 whole entry): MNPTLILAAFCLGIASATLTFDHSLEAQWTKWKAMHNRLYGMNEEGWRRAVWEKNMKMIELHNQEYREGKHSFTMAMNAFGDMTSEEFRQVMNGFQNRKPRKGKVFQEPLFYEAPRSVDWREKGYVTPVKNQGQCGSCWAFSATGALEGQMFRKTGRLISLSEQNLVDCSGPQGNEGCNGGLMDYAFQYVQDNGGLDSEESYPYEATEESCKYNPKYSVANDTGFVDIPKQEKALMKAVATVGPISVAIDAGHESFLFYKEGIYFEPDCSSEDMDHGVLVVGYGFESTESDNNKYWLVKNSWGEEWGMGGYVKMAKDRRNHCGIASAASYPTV
Luciferin 4-monooxygenase, sequence (P08659 whole entry): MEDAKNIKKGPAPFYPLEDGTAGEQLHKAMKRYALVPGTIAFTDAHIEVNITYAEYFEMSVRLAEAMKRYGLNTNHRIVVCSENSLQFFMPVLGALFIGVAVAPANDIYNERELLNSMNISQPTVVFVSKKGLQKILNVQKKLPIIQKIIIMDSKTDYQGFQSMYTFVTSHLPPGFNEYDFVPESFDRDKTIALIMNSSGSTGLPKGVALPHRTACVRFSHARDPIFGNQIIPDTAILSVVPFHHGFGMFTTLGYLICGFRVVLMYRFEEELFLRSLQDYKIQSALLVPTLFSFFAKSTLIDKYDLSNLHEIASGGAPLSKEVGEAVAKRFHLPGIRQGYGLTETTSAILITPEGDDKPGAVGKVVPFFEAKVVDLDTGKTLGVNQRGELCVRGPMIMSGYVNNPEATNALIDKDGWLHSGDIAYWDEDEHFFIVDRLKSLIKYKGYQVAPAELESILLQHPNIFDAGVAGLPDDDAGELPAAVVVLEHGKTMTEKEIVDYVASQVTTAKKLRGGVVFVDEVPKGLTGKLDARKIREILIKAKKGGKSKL
Glyceraldehyde-3-phosphate dehydrogenase, sequence (P04406 whole entry): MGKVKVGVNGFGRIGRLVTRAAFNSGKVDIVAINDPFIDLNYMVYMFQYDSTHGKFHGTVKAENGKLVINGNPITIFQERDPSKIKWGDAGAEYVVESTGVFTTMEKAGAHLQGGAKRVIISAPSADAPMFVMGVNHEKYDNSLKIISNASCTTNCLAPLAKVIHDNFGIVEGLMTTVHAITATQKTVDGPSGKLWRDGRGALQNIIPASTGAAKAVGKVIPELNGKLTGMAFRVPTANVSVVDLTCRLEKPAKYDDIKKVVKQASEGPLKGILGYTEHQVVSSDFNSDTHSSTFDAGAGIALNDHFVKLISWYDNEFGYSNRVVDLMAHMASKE

IC50 [1]: 24.8 µM (active)
Compound: COc1ccc2cc3c(N)nn(C(=O)Cc4ccc(Cl)cc4)c3nc2c1

AC50 [2]: 20 µM (inconclusive)
Compound: Cc1ccc(C(=O)[C@@H]2[C@@H]3[C@@H](C(=O)[C@@H]4OC[C@H]3O4)[C@@H]3C=Cc4ccccc4N23)cc1

AC50 [3]: > 30 µM (inactive)
Compound: CC(C(=O)NC(N)=O)N1C(=O)NC(c2ccccc2)(c2ccccc2)C1=O (stereo not drawn)

IC50 [1]: 18 µM (active)
Compound: O=S(=O)(NCc1csc(-c2cccnc2)n1)c1cccs1

AC50 [3]: > 30 µM (inactive)
Compound: Cc1cc(=O)oc2c(C)c(OC(C)C(=O)NCCCN3CCCC3=O)ccc12 (stereo not drawn)

Compound: COCCn1c(C)cc(C(=O)CSc2ccc(NC(C)=O)cc2)c1C
EC50 [4]: > 50 µM (not active) | EC50 [5]: 3.66 µM (active) | EC50 [6]: > 53 µM (inactive) | IC50 [7]: > 100 µM (not active)

Compound: CC(C)Oc1ccc(CNCCC2(C(C)C)CCOC(C)(C)C2)cc1 (stereo not drawn)
EC50 [8]: < 0.1 µM (active) | EC50 [9]: 0.154 µM (active) | EC50 [10]: > 60 µM (not active)

IC50 [11]: > 59.6 µM (not active) | IC50 [12]: 4.06 µM (active) | IC50 [13]: > 73.5 µM (not active)
Compound: C=CCn1c(SCC(=O)Nc2cccc3ccccc23)nc(=O)c(CC)c1O

Compound: O=C(CCCn1cnc([N+](=O)[O-])n1)Nc1ccc(F)c(Cl)c1
EC50 [8]: < 0.1 µM (active) | EC50 [9]: 0.098 µM (active) | EC50 [10]: > 60 µM (not active)
